Key:
[1] = target: T1, Pim-1 stably transfected into the U2OS human osteogenic sarcoma line (Homo sapiens, UniProt P11309); assay: Pim cell assay, phospho-BAD normalized against total BAD, U2OS stably transfected with Pim-1; assay type: cell-based; settings: U2OS stably transfected with Pim-1; phospho-BAD normalized against total BAD; 29 min incubation; read-out: Pim1_Cell_IC50_
T1 construct: expressed in transfected cells; host or cells: U2OS human osteogenic sarcoma line
Experimental: (§1) The cell lines used in the assay were generated by the stable transfection of either Pim-1 or Pim-2 into the U2OS human osteogenic sarcoma line. The assay for determination of the Pim activity in the engineered U2OS cell lines measures levels of phospho-BAD normalized against total BAD protein levels. It was conducted as follows:
(§2) The adherent cells were dissociated from the flasks using non-enzymatic cell dissociation solution (Sigma # C5914). […] The cells were then incubated overnight at 37° C., 5% CO2.
(§3) In addition to the 10-point dosing curve of the test compound, DMSO alone was run as the high control.
(§4) This dilution in DMSO was then diluted again into cell growth medium. Aliquots (12 uL) of the compound diluted in growth medium were then transferred to the appropriate wells of the 96-well plates containing cells to yield a final DMSO concentration of 0.3%.
(§5) The cell plates containing lysis buffer were then immediately stored at −70° C.
(§6) These prepared lysates were then assayed for phospho and total BAD according to the manufacturer's protocols (Meso Scale Diagnostics, Cat# K15103C-3 & # K15103D-3). The plates were read on the MSD Sector Imager 6000, and results were calculated according to the assay protocols ((% Phosphoprotein=((2×Phospho signal)/(Phospho signal+Total signal))×100)).

[2] = target: T2, Pim-2 stably transfected into the U2OS human osteogenic sarcoma line (Homo sapiens, UniProt Q9P1W9); assay: Pim cell assay, phospho-BAD normalized against total BAD, U2OS stably transfected with Pim-2; assay type: cell-based; settings: U2OS stably transfected with Pim-2; phospho-BAD normalized against total BAD; 29 min incubation; read-out: Pim2_Cell_IC50_
T2 construct: expressed in transfected cells; host or cells: U2OS human osteogenic sarcoma line
Experimental: as §1, §2, §3, §4, §5, §6

[3] = target: T3, full length recombinant Pim-2 protein (Homo sapiens, UniProt Q9P1W9); assay: Pim-2 enzyme assay (HTRF, phosphorylation of biotinylated-BAD (S112) peptide); assay type: biochemical; settings: read-out: Pim2_IC50
T3 construct: by full length recombinant Pim-1, Pim-2, or Pim-3 protein; hexahistidine tag followed by a thrombin cleavage site (N); made in house; host or cells: Sf9 (baculovirus) or E. coli (pET28)
Summary of the method: (§7)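 Recombinant full-length Pim-1 or Pim-2 was incubated with biotinylated BAD (S112) peptide in pH 7.0 Hepes buffer with BSA and DTT. After an EDTA stop, phosphopeptide was quantified by time-resolved FRET between a europium antibody and streptavidin-APC, and IC50 values came from 4-parameter logistic curves.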

[4] = target: T4, full length recombinant Pim-1 protein (Homo sapiens, UniProt P11309); assay: Pim-1 enzyme assay (HTRF, phosphorylation of biotinylated-BAD (S112) peptide); assay type: biochemical; settings: read-out: Pim_1_IC50
T4 construct: by full length recombinant Pim-1, Pim-2, or Pim-3 protein; hexahistidine tag followed by a thrombin cleavage site (N); made in house; host or cells: Sf9 (baculovirus) or E. coli (pET28)
Summary of the method: as §7

T2 sequence (Q9P1W9 whole entry): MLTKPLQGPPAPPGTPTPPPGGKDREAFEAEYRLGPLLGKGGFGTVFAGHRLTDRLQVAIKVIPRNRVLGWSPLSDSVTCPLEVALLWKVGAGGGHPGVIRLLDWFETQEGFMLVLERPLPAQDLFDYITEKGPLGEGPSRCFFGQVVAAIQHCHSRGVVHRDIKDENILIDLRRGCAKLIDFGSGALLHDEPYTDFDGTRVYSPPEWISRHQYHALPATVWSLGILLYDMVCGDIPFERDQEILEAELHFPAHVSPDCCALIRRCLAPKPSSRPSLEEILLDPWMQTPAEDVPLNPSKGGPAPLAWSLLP
T3 sequence (Q9P1W9 whole entry): as above
T4 sequence (P11309 whole entry): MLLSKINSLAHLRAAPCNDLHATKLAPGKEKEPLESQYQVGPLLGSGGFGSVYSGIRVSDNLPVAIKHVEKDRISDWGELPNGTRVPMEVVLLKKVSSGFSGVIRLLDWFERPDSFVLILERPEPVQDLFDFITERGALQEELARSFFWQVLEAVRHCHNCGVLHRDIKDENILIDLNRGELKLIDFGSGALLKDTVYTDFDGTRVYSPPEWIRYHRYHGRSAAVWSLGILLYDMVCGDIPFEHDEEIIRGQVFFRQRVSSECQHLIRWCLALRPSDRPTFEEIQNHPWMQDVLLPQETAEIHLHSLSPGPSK
T1 sequence (P11309 whole entry): as above

Row | IC50 [1] [nM] | IC50 [2] [nM] | IC50 [3] [nM] | IC50 [4] [nM] | SMILES
1 | 3610 | > 15800 | 68 | 9 | FC(F)Oc1cccc(-c2ccc3[nH]cc(-c4cncc(O[C@@H]5CCCNC5)n4)c3c2)c1 [Example 344]
2 | 729 | > 15800 | 157 | 20 | COc1ccc(-c2ccc3[nH]cc(-c4cncc(O[C@@H]5CCCNC5)n4)c3c2)cc1OC [Example 345]
3 | 273 | 9690 | 16 | 2 | CN1CCOc2cc(-c3ccc4[nH]cc(-c5cncc(O[C@@H]6CCCNC6)n5)c4c3)ccc21 [Example 347]
4 | 2720 | > 15800 | 94 | 8 | CC(C)Oc1cccc(-c2ccc3[nH]cc(-c4cncc(O[C@@H]5CCCNC5)n4)c3c2)c1 [Example 360]
5 | 2070 | > 31600 | 71 | 12 | c1cc(-c2ccc3[nH]nc(-c4cncc(O[C@@H]5CCCNC5)n4)c3c2)nc(C2CC2)n1 [Example 361]
6 | 864 | 4150 | 7 | 3 | CC(C)NC(=O)c1ccc(F)c(-c2ccc3[nH]nc(-c4cncc(N[C@@H]5CCCNC5)n4)c3c2)c1 [Example 362]
7 | 868 | 8800 | 27 | 14 | CC(O)c1cccc(-c2ccc3[nH]nc(-c4cncc(O[C@@H]5CCCNC5)n4)c3c2)c1 (stereo partly shown) [Example 367]
8 | 130 | 3370 | 5 | 1 | c1cc2[nH]nc(-c3cncc(O[C@@H]4CCNCC45CC5)n3)c2cc1-c1cncc(C2CC2)n1 [Example 373, 3-(6-((8R)-5-azaspiro[2.5]oct-8-yloxy)-2-pyrazinyl)-5-(6-cyclopropyl-2-pyrazinyl)-1H-indazole]
9 | 312 | 8090 | 17 | 1 | c1cc2[nH]nc(-c3cncc(O[C@H]4CCNCC45CC5)n3)c2cc1-c1cncc(C2CC2)n1 [Example 374, 3-(6-((8S)-5-azaspiro[2.5]oct-8-yloxy)-2-pyrazinyl)-5-(6-cyclopropyl-2-pyrazinyl)-1H-indazole]
10 | 657 | > 31600 | 16 | 2 | COc1cncc(-c2n[nH]c3ccc(-c4cncc(C5CC5)n4)cc23)n1 [Example 379]
11 | 772 | > 31600 | 37 | 4 | CC(C)Oc1cncc(-c2n[nH]c3ccc(-c4cncc(C5CC5)n4)cc23)n1 [Example 381]
12 | 44 | 21800 | 10 | 1 | COc1cncc(-c2n[nH]c3ccc(-c4cncc(NC5CC5)n4)cc23)n1 [Example 383, N-cyclopropyl-6-(3-(6-methoxy-2-pyrazinyl)-1H-indazol-5-yl)-2-pyrazinamine]
13 | 1130 | 8650 | 25 | 17 | c1cc2[nH]nc(-c3cncc(O[C@H]4CNCCC45CC5)n3)c2cc1N1CCOCC1 [Example 400]
14 | 2580 | > 15800 | 19 | 9 | Cc1ccccc1-c1ccc2[nH]nc(-c3cncc(O[C@H]4CNCCC45CC5)n3)c2c1 [Example 404]
15 | 2070 | > 15800 | 51 | 20 | FC(F)(F)c1ccccc1-c1ccc2[nH]nc(-c3cncc(O[C@H]4CNCCC45CC5)n3)c2c1 [Example 407]
16 | 1150 | 31700 | 50 | 19 | Brc1ccc2[nH]nc(-c3cncc(O[C@@H]4CNCCC45CC5)n3)c2c1 [Example 421]
17 | 204 | 8790 | 8 | 2 | CC(C)OC(=O)c1ccc2[nH]nc(-c3cncc(N4CCC(N)CC4)n3)c2c1 [Example 470]
18 | 221 | 9630 | 44 | 4 | COC(=O)c1ccc2[nH]nc(-c3cncc(N[C@@H]4CCCNC4)n3)c2c1 [Example 473]
19 | 108 | 14600 | 52 | 2 | CC(C)OC(=O)c1ccc2[nH]nc(-c3cncc(N[C@@H]4CCCNC4)n3)c2c1 [Example 474, 1-methylethyl 3-(6-((3R)-3-piperidinylamino)-2-pyrazinyl)-1H-indazole-5-carboxylate]
20 | 588 | 31600 | 144 | 18 | COC(=O)c1ccc2[nH]nc(-c3cncc(O[C@@H]4CCCNC4)n3)c2c1 [Example 476]
21 | 348 | 20300 | 126 | 8 | CC(C)OC(=O)c1ccc2[nH]nc(-c3cncc(O[C@@H]4CCCNC4)n3)c2c1 [Example 477]
22 | 522 | > 15800 | 54 | 13 | COC(=O)c1ccc2[nH]nc(-c3ccnc(N[C@@H]4CCCNC4)n3)c2c1 [Example 490]

Second part, the compound before the results:

Row | SMILES | IC50 [1] [nM] | IC50 [2] [nM] | IC50 [3] [nM] | IC50 [4] [nM]
23 | N#CC1(c2cccc(-c3ccc4[nH]cc(-c5cncc(O[C@@H]6CCCNC6)n5)c4c3)c2)CCC1 [Example 350] | 2360 | > 15800 | 193 | 6
24 | CC(C)Nc1cncc(-c2n[nH]c3ccc(-c4cncc(C5CC5)n4)cc23)n1 [Example 368, 6-(5-(6-cyclopropyl-2-pyrazinyl)-1H-indazol-3-yl)-N-(1-methylethyl)-2-pyrazinamine] | 23 | 1770 | 37 | 6
25 | c1cc2[nH]nc(-c3cncc(OC4CCNCC45CC5)n3)c2cc1-c1cncc(C2CC2)n1 (stereo not shown) [Example 372] | 200 | > 10000 | 7 | 1
26 | FCCOc1cncc(-c2n[nH]c3ccc(-c4cncc(C5CC5)n4)cc23)n1 [Example 384] | 207 | > 31600 | 27 | 4
27 | Nc1cncc(-c2ccc3[nH]nc(-c4cncc(OCCF)n4)c3c2)n1 [Example 386, 6-(3-(6-(2-fluoroethoxy)-2-pyrazinyl)-1H-indazol-5-yl)-2-pyrazinamine] | 61 | > 31600 | 11 | 6
28 | c1cc2[nH]nc(-c3cncc(NC4CC4)n3)c2cc1-c1cncc(C2CC2)n1 [Example 391, N-cyclopropyl-6-(5-(6-cyclopropyl-2-pyrazinyl)-1H-indazol-3-yl)-2-pyrazinamine] | 114 | > 10000 | 12 | 2
29 | CC(C)(O)CNc1cncc(-c2n[nH]c3ccc(-c4cncc(C5CC5)n4)cc23)n1 [Example 392] | 212 | > 10000 | 66 | 13
30 | NC1CCN(c2cc(O)nc(-c3n[nH]c4ccc(-c5c(F)cccc5F)cc34)n2)CC1 [Example 482] | 1200 | > 31600 | 4 | 1
31 | Oc1cc(-c2c[nH]c3ccc(-c4c(F)cccc4F)cc23)nc(N2CCOCC2)n1 [Example 483] | 219 | > 31600 | 32 | 4
32 | COc1cc(-c2n[nH]c3ccc(-c4c(F)cccc4F)cc23)nc(N2CCC(N)CC2)n1 [Example 506] | 3740 | > 31600 | 33 | 15
33 | NC1CCN(c2cncc(-c3n[nH]c4ccc(-c5nccc6[nH]ccc56)cc34)n2)CC1 [Example 507] | > 31600 | > 31600 | 65 | 3
34 | CC(C)Oc1cncc(-c2ccc3[nH]cc(-c4nnc(N5CCC[C@H](N)C5)o4)c3c2)n1 [Example 510] | 1010 | > 31600 | 78 | 17
35 | Oc1cc(N[C@@H]2CCCNC2)nc(-c2c[nH]c3ccc(-c4c(F)cccc4F)cc23)n1 [Example 515] | 12000 | > 31600 | 7 | 3
36 | NC1CCN(c2ccnc(-c3n[nH]c4ccc(-c5c(F)cccc5F)cc34)n2)CC1 [Example 516] | 861 | > 31600 | 142 | 6
37 | NC1CCN(c2cncc(-c3c[nH]c4ccc(-c5cncc(C6CC6)n5)cc34)n2)CC1 [Example 517] | 176 | > 31600 | 65 | 2
